The target in this data set is ATXN2. The experiment in a line: mouse, dose not given. The conditions noted are these: ASO.

HELM strings list units from the 5' end as sugar, base in round brackets, then linkage (d deoxyribose, r ribose, m 2'-O-methyl, p phosphodiester). Strings are as the collection lists them; they lack the last nucleoside at the 3' end of the tested compound. [moe] = 2'-O-(2-methoxyethyl) (MOE); [sp] = phosphorothioate linkage; [m5C] = 5-methylcytosine

In the case of “RNA1{[moe](G)[sp].[moe]([m5C])p.[moe](G)p.[moe](G)p.[moe](T)p.d(G)[sp].d(A)[sp].d(A)[sp].d(T)[sp].d(T)[sp].d([m5C])[sp].d(T)[sp].d(G)[sp].d(T)[sp].d([m5C])[sp].[moe](T)p.[moe]([m5C])p.[moe]([m5C])[sp].[moe]([m5C])}$$$$ (last 3' nucleoside missing)”, the 3 h FOB score turned out to be 0 score 0-7.

Take “RNA1{[moe](T)[sp].[moe]([m5C])p.[moe](T)p.[moe](G)p.[moe](T)[sp].d(A)[sp].d([m5C])[sp].d(T)[sp].d(T)[sp].d(T)[sp].d(T)[sp].d([m5C])[sp].d(T)[sp].[moe]([m5C])p.[moe](A)p.[moe](T)[sp].[moe](G)}$$$$ (last 3' nucleoside missing)”: the 3 h FOB score is 0.5 score 0-7.

“RNA1{[moe](A)[sp].[moe](A)p.[moe](G)p.[moe](A)p.[moe]([m5C])p.d(T)[sp].d(T)[sp].d(T)[sp].d(T)[sp].d(T)[sp].d(A)[sp].d(T)[sp].d(G)[sp].d(T)[sp].d(T)[sp].[moe](G)p.[moe]([m5C])p.[moe](T)[sp].[moe]([m5C])}$$$$ (last 3' nucleoside missing)” yielded a 3 h FOB score of 3.5 score 0-7.

“RNA1{[moe](G)[sp].[moe](T)p.[moe](T)p.[moe]([m5C])p.[moe](A)p.d(A)[sp].d(A)[sp].d(T)[sp].d(T)[sp].d([m5C])[sp].d([m5C])[sp].d(G)[sp].d(G)[sp].d([m5C])[sp].d(T)[sp].[moe]([m5C])p.[moe]([m5C])p.[moe](A)[sp].[moe](T)}$$$$ (last 3' nucleoside missing)” displayed a 3 h FOB score of 5.25 score 0-7.

Regarding “RNA1{[moe]([m5C])[sp].[moe](T)p.[moe]([m5C])p.[moe](T)p.[moe]([m5C])p.[moe]([m5C])p.d(A)[sp].d(T)[sp].d(T)[sp].d(A)[sp].d(T)[sp].d(T)[sp].d(T)[sp].d([m5C])[sp].d(T)[sp].d(T)[sp].[moe]([m5C])p.[moe](A)[sp].[moe]([m5C])}$$$$ (last 3' nucleoside missing)”, the 3 h FOB score came to 2 score 0-7.

Turning to “RNA1{[moe](T)[sp].[moe](G)p.[moe](T)p.[moe](T)p.[moe](G)p.d(T)[sp].d(T)[sp].d(G)[sp].d(T)[sp].d(T)[sp].d(T)[sp].d(A)[sp].d([m5C])[sp].d(A)[sp].d(T)[sp].[moe](T)p.[moe](A)p.[moe](T)[sp].[moe](T)}$$$$ (last 3' nucleoside missing)”, the 3 h FOB score is 0 score 0-7.

The substance “RNA1{[moe](T)[sp].[moe](T)p.[moe]([m5C])p.[moe](T)p.[moe]([m5C])p.d(T)[sp].d(A)[sp].d(T)[sp].d(T)[sp].d(T)[sp].d([m5C])[sp].d(T)[sp].d(T)[sp].d(T)[sp].d(G)[sp].[moe](T)p.[moe]([m5C])p.[moe]([m5C])[sp].[moe](A)}$$$$ (last 3' nucleoside missing)” yielded a 3 h FOB score of 3 score 0-7.

With “RNA1{[moe](A)[sp].[moe]([m5C])p.[moe](T)p.[moe](T)p.[moe](T)p.d(T)[sp].d([m5C])[sp].d(T)[sp].d([m5C])[sp].d(A)[sp].d(T)[sp].d(G)[sp].d(T)[sp].d(G)[sp].d([m5C])[sp].[moe](G)p.[moe](G)p.[moe]([m5C])[sp].[moe](A)}$$$$ (last 3' nucleoside missing)”, the 3 h FOB score came to 5 score 0-7.

“RNA1{[moe](G)[sp].[moe]([m5C])p.[moe](T)p.[moe](T)p.d(A)[sp].d(G)[sp].d(A)[sp].d(G)[sp].d(T)[sp].d(T)[sp].d(T)[sp].d(T)[sp].d(T)[sp].d(G)[sp].[moe]([m5C])p.[moe]([m5C])p.[moe](T)p.[moe](T)[sp].[moe]([m5C])}$$$$ (last 3' nucleoside missing)” displayed a 3 h FOB score of 4 score 0-7.

In turn, “RNA1{[moe](T)[sp].[moe]([m5C])p.[moe](A)p.[moe](T)p.[moe](T)p.d(T)[sp].d(T)[sp].d(A)[sp].d(T)[sp].d(T)[sp].d([m5C])[sp].d(T)[sp].d(G)[sp].d([m5C])[sp].d(T)[sp].[moe](T)p.[moe](T)p.[moe](G)[sp].[moe]([m5C])}$$$$ (last 3' nucleoside missing)” had a 3 h FOB score of 2 score 0-7.

“RNA1{[moe]([m5C])[sp].[moe](T)p.[moe](A)p.[moe](T)p.[moe](T)[sp].d(T)[sp].d([m5C])[sp].d(T)[sp].d(T)[sp].d(T)[sp].d(G)[sp].d(T)[sp].d([m5C])[sp].[moe]([m5C])p.[moe](A)p.[moe](G)[sp].[moe](G)}$$$$ (last 3' nucleoside missing)” came in with a 3 h FOB score of 3.25 score 0-7.

As for “RNA1{[moe]([m5C])[sp].[moe](T)p.[moe]([m5C])p.[moe]([m5C])p.[moe](T)[sp].d(A)[sp].d(T)[sp].d([m5C])[sp].d(A)[sp].d(T)[sp].d([m5C])[sp].d(A)[sp].d(T)[sp].[moe](T)p.[moe](T)p.[moe](T)[sp].[moe]([m5C])}$$$$ (last 3' nucleoside missing)”, the 3 h FOB score stood at 0 score 0-7.

Substance “RNA1{[moe](T)[sp].[moe]([m5C])p.[moe](A)p.[moe](T)p.[moe]([m5C])[sp].d(A)[sp].d(T)[sp].d(T)[sp].d(T)[sp].d(T)[sp].d([m5C])[sp].d([m5C])[sp].d(A)[sp].[moe](G)p.[moe](G)p.[moe](G)[sp].[moe]([m5C])}$$$$ (last 3' nucleoside missing)” came in with a 3 h FOB score of 1 score 0-7.

In turn, “RNA1{[moe](G)[sp].[moe](T)p.[moe](G)p.[moe](G)p.[moe](T)p.d(G)[sp].d(T)[sp].d(G)[sp].d([m5C])[sp].d(G)[sp].d([m5C])[sp].d(A)[sp].d(T)[sp].d(G)[sp].d(T)[sp].[moe](A)p.[moe](G)p.[moe](A)[sp].[moe]([m5C])}$$$$ (last 3' nucleoside missing)” yielded a 3 h FOB score of 5.5 score 0-7.

The substance “RNA1{[moe](A)[sp].[moe](G)p.[moe]([m5C])p.[moe](T)p.[moe](T)p.d(A)[sp].d(G)[sp].d(A)[sp].d(G)[sp].d(T)[sp].d(T)[sp].d(T)[sp].d(T)[sp].d(T)[sp].d(G)[sp].[moe]([m5C])p.[moe]([m5C])p.[moe](T)[sp].[moe](T)}$$$$ (last 3' nucleoside missing)” returned a 3 h FOB score of 5 score 0-7.

In turn, “RNA1{[moe](G)[sp].[moe](T)p.[moe](T)p.[moe]([m5C])p.[moe]([m5C])p.d(T)[sp].d(T)[sp].d(A)[sp].d([m5C])[sp].d(A)[sp].d(A)[sp].d(T)[sp].d(T)[sp].d(A)[sp].d(T)[sp].[moe]([m5C])p.[moe](T)p.[moe](A)[sp].[moe](T)}$$$$ (last 3' nucleoside missing)” displayed a 3 h FOB score of 3 score 0-7.

For “RNA1{[moe]([m5C])[sp].[moe](T)p.[moe](T)p.[moe](A)p.d(G)[sp].d(A)[sp].d(G)[sp].d(T)[sp].d(T)[sp].d(T)[sp].d(T)[sp].d(T)[sp].d(G)[sp].d([m5C])[sp].[moe]([m5C])p.[moe](T)p.[moe](T)p.[moe]([m5C])[sp].[moe]([m5C])}$$$$ (last 3' nucleoside missing)”, the 3 h FOB score was determined as 5.5 score 0-7.

The substance “RNA1{[moe](G)[sp].[moe]([m5C])p.[moe](A)p.[moe](A)p.[moe]([m5C])p.d(T)[sp].d(T)[sp].d(A)[sp].d(A)[sp].d(T)[sp].d(A)[sp].d(A)[sp].d([m5C])[sp].d([m5C])[sp].d(T)[sp].[moe](T)p.[moe](A)p.[moe](G)[sp].[moe](T)}$$$$ (last 3' nucleoside missing)” gave a 3 h FOB score of 0 score 0-7.

“RNA1{[moe](T)[sp].[moe](G)p.[moe](G)p.[moe](T)p.[moe](T)p.d([m5C])[sp].d([m5C])[sp].d(T)[sp].d(T)[sp].d(A)[sp].d([m5C])[sp].d(A)[sp].d(A)[sp].d(T)[sp].d(T)[sp].[moe](A)p.[moe](T)p.[moe]([m5C])[sp].[moe](T)}$$$$ (last 3' nucleoside missing)” showed a 3 h FOB score of 0 score 0-7.

For the substance “RNA1{[moe](G)[sp].[moe](A)p.[moe](A)p.[moe](G)p.[moe](T)p.d([m5C])[sp].d(T)[sp].d(T)[sp].d(G)[sp].d(T)[sp].d(T)[sp].d([m5C])[sp].d(A)[sp].d(G)[sp].d(T)[sp].[moe](G)p.[moe](T)p.[moe]([m5C])[sp].[moe]([m5C])}$$$$ (last 3' nucleoside missing)”, the 3 h FOB score worked out at 3.75 score 0-7.

“RNA1{[moe](G)[sp].[moe](T)p.[moe](T)p.[moe](T)p.[moe](G)p.d(G)[sp].d(A)[sp].d(A)[sp].d(T)[sp].d([m5C])[sp].d(T)[sp].d(T)[sp].d(A)[sp].d(T)[sp].d(T)[sp].[moe](A)p.[moe](A)p.[moe](G)[sp].[moe]([m5C])}$$$$ (last 3' nucleoside missing)” came in with a 3 h FOB score of 1 score 0-7.

For the substance “RNA1{[moe](G)[sp].[moe]([m5C])p.[moe](T)p.[moe](G)p.[moe](T)p.d(G)[sp].d(A)[sp].d(G)[sp].d(T)[sp].d(T)[sp].d([m5C])[sp].d(A)[sp].d([m5C])[sp].d([m5C])[sp].d(T)[sp].[moe](G)p.[moe]([m5C])p.[moe](A)[sp].[moe](T)}$$$$ (last 3' nucleoside missing)”, the 3 h FOB score was 0 score 0-7.

Consider “RNA1{[moe](T)[sp].[moe](T)p.[moe](T)p.[moe](G)p.[moe]([m5C])p.d(T)[sp].d(T)[sp].d(A)[sp].d(T)[sp].d(T)[sp].d(A)[sp].d(T)[sp].d(T)[sp].d([m5C])[sp].d(T)[sp].[moe]([m5C])p.[moe](A)p.[moe]([m5C])[sp].[moe](A)}$$$$ (last 3' nucleoside missing)”, for which the 3 h FOB score is 0 score 0-7.

“RNA1{[moe](T)[sp].[moe](A)p.[moe]([m5C])p.[moe](T)p.[moe](T)p.d(T)[sp].d(T)[sp].d([m5C])[sp].d(T)[sp].d([m5C])[sp].d(A)[sp].d(T)[sp].d(G)[sp].d(T)[sp].d(G)[sp].[moe]([m5C])p.[moe](G)p.[moe](G)[sp].[moe]([m5C])}$$$$ (last 3' nucleoside missing)” registered a 3 h FOB score of 3.75 score 0-7.

The substance “RNA1{[moe](A)[sp].[moe](A)p.[moe](G)p.[moe](A)p.[moe](T)p.d(G)[sp].d(G)[sp].d(G)[sp].d(T)[sp].d(T)[sp].d(T)[sp].d(T)[sp].d(T)[sp].d(T)[sp].d(T)[sp].[moe](G)p.[moe]([m5C])p.[moe](T)[sp].[moe](T)}$$$$ (last 3' nucleoside missing)” had a 3 h FOB score of 4 score 0-7.

Turning to “RNA1{[moe]([m5C])[sp].[moe]([m5C])p.[moe](A)p.[moe](T)p.[moe](A)p.d([m5C])[sp].d(G)[sp].d([m5C])[sp].d(G)[sp].d(G)[sp].d(T)[sp].d(G)[sp].d(A)[sp].d(A)[sp].d(T)[sp].[moe](T)p.[moe]([m5C])p.[moe](T)[sp].[moe](G)}$$$$ (last 3' nucleoside missing)”, the 3 h FOB score was determined as 4.5 score 0-7.

The values are drawn from the OligoGym collection.
